Test results as given in BindingDB's records for doi:10.1016/j.bmcl.2013.05.020 (Vanderbilt University Medical Center, 2013).

Target: Metabotropic glutamate receptor 1 (Homo sapiens, UniProt Q13255)
Experiment: Negative allosteric modulation of human mGluR1 expressed in HEK293A cells assessed as inhibition of glutamate-induced calcium mobilization

Sequence of Metabotropic glutamate receptor 1 (Q13255 whole entry): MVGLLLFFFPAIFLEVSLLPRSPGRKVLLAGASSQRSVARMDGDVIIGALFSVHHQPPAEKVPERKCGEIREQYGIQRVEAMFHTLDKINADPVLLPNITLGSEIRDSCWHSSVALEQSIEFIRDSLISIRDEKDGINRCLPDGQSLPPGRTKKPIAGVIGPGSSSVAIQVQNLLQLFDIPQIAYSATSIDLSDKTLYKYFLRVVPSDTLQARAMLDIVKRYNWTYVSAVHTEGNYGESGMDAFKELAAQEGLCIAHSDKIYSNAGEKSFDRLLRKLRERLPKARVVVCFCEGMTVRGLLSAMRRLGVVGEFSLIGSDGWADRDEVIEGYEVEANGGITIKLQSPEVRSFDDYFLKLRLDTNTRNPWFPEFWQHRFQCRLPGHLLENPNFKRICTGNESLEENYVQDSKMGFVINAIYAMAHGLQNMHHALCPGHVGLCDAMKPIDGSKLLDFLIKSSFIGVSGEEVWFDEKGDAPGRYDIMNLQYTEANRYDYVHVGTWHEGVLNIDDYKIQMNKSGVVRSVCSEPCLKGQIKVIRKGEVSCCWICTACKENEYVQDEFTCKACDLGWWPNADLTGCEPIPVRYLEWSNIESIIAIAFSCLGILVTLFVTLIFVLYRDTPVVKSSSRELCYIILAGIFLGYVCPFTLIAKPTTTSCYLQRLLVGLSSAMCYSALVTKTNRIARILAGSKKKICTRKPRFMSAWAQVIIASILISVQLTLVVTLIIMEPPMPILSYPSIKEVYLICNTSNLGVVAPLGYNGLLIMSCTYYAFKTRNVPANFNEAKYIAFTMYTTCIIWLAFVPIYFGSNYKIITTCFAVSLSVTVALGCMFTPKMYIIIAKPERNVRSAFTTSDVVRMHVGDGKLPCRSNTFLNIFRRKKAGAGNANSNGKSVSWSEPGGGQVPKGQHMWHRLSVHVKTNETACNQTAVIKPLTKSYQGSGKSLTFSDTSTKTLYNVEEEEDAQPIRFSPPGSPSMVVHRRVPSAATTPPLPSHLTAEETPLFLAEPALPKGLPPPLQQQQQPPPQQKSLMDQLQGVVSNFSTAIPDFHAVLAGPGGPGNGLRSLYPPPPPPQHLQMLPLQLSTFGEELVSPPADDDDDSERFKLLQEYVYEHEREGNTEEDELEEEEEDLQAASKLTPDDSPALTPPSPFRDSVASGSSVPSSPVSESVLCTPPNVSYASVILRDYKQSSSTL

Row | Compound | IC50 [µM]
1 | C[C@@H]1CN(C(=O)[C@H]2CC[C@H](C)CC2)CCN1c1ccccn1 | > 31.6
2 | C[C@@H]1CN(C(=O)C23C4C5C6C4C2C6C53)CCN1c1ccccn1 (stereo partly drawn) | > 31.6
3 | C[C@@H]1CN(C(=O)C2CCCCC2)CCN1c1ccccn1 | > 31.6
4 | C[C@@H]1CN(C(=O)C(C)(C)C)CCN1c1ccccn1 | > 31.6
5 | C[C@@H]1CN(C(=O)C23CC4CC(CC(C4)C2)C3)CCN1c1ccncc1 | > 31.6
6 | C[C@@H]1CN(c2ccccn2)CCN1C(=O)C(C)(C)C | > 31.6
7 | C[C@@H]1CN(C(=O)C2CC2)CCN1c1ccccn1 | > 31.6
8 | C[C@@H]1CN(c2ccccn2)CCN1C(=O)C1CC1 | > 31.6
